ChEMBL document CHEMBL5729410, “Urea-substituted aromatic ring-linked dioxinoquinoline compounds, preparation method and uses thereof” (2022)
pIC50: −log10 of the molar value.

What was measured:
[1] = molecular target: Proto-oncogene tyrosine-protein kinase receptor Ret (Homo sapiens, UniProt P07949); assay: Assay of Small Molecular Compounds for Inhibiting the Activity of RET Kinase: The assay is based on the LANCE TR-FRET technology of Perkin Elmer Inc., and the assay method is as follows:1.
[2] = molecular target: Vascular endothelial growth factor receptor 2 (Homo sapiens, UniProt P35968); assay: Assay of Small Molecular Compounds for Inhibiting the Activity of VEGFR-2 Kinase: The assay is based on the LANCE TR-FRET technology of Perkin Elmer Inc., and the assay method is as follows:1.
Vascular endothelial growth factor receptor 2, sequence (P35968 whole entry): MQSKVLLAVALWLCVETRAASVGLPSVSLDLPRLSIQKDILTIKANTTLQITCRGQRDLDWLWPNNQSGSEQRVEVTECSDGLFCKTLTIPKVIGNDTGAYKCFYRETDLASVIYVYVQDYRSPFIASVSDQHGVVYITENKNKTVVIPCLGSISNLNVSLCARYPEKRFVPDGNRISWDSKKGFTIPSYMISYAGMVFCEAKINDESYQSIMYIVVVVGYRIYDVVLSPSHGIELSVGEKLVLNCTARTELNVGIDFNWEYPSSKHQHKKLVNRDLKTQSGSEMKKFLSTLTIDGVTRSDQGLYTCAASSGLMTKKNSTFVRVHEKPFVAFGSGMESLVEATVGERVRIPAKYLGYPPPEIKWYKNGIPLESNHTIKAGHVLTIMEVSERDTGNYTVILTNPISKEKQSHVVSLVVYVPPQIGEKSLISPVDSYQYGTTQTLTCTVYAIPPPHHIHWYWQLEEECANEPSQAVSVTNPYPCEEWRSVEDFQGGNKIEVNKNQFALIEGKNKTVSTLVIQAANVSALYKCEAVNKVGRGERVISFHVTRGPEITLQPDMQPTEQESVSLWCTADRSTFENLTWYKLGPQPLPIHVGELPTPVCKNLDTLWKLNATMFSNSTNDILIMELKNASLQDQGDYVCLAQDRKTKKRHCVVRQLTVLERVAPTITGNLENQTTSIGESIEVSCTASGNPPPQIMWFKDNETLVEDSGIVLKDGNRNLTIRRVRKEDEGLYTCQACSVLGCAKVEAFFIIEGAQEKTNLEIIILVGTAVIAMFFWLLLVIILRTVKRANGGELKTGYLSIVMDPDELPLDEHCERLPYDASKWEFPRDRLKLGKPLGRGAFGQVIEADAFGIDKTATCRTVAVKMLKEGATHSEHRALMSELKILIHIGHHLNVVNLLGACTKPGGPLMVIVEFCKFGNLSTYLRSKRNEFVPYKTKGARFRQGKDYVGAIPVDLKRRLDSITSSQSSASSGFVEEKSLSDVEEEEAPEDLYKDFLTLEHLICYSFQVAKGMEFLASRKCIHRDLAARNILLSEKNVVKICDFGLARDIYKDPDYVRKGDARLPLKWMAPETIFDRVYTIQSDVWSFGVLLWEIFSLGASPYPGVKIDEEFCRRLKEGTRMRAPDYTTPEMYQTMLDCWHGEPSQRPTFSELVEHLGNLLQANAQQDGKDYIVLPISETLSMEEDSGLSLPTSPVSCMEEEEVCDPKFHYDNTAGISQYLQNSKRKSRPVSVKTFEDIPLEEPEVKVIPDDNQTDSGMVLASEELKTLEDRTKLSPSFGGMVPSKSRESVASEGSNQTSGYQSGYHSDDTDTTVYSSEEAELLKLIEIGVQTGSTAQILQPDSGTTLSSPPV

Proto-oncogene tyrosine-protein kinase receptor Ret, sequence (P07949 whole entry): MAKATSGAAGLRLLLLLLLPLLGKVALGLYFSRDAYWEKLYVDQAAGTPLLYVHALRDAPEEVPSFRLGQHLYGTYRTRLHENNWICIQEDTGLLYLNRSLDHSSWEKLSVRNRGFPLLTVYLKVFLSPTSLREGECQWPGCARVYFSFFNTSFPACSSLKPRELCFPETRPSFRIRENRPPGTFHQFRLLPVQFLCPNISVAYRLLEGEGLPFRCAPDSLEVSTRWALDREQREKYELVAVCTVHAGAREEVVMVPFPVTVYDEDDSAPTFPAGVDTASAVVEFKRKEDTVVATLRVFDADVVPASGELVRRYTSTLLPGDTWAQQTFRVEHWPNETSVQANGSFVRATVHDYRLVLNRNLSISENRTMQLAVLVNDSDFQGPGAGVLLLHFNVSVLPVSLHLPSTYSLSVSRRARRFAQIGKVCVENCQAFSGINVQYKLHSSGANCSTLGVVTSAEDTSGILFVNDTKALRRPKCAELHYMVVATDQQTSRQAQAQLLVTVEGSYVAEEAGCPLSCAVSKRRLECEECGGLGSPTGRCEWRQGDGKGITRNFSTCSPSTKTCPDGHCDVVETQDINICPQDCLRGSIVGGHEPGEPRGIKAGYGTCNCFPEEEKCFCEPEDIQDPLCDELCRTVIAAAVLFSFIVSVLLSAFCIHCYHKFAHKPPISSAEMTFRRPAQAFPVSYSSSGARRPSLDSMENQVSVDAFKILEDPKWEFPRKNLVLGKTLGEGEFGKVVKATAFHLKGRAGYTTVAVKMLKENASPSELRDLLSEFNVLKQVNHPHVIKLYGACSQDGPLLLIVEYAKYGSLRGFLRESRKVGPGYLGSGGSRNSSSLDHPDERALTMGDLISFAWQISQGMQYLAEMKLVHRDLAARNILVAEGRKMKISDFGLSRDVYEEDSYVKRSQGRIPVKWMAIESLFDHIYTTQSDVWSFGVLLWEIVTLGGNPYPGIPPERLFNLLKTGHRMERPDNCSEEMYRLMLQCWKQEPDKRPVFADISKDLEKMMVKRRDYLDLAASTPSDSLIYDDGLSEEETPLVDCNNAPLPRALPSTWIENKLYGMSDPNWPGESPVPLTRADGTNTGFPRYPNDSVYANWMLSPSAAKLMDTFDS

| pIC50 [1] | pIC50 [2] | Compound |
| --- | --- | --- |
| > 7.30 | – | O=C(Nc1ccc(Oc2ccnc3cc(OC4CCOCC4)c4c(c23)OCCO4)cc1Cl)NC1CC1 |
| > 7.30 | > 7.30 | CN(CCCOc1cc2nccc(Oc3ccc(NC(=O)Nc4ccc(Cl)c(C(F)(F)F)c4)cc3)c2c2c1OCCO2)C1CCC1 |
| > 7.30 | > 7.30 | O=C(Nc1ccc(Oc2ccnc3cc(OCCCN4CCOCC4)c4c(c23)OCCO4)cc1F)NC1CC1 |
